Reference: US20010018060A1, “Use of particular fatty substances which make it possible to modify the physicochemical properties of the skin and/or the mucous membranes as agents preventing or reducing the adhesion of microorganisms to the latter” (priority 2000, published 2001)

What was measured:
[1] = test system: Staphylococcus aureus adhering to reconstructed epidermis; assay type: cell-based; conditions: for Reduction of log/control: reduction of decimal logarithm of mean number of viable Staphylococcus aureus adhering to reconstructed epidermis (EPISKIN) vs water, 25 mg fatty substance, 2 hours at 37° C., then 24 hours with bacteria
Protocol: Moreover, these fatty substances are such that the decimal logarithm of the mean number of viable bacteria adhering to reconstructed epidermis, after a test consisting in bringing the said epidermis into contact with the test compound for 2 hours at 37° C., is at least 0.3, preferably 0.5 and more preferably 1, less than that obtained by a test carried out with water under the same conditions.
The reconstructed epidermis used in the test indicated above is reconstructed human epidermis, equivalent to human skin, sold by EPISKIN.
The antiadhesion test corresponds to the protocol below:
Before bacterial adhesion, the reconstructed epidermis is brought into contact for 2 hours with 25 mg of the fatty substance to be tested at 37° C. 1 ml of bacterial suspension of Staphylococcus aureus at a concentration of 10^7 microorganisms/ml in Tryptone salt is then added thereto. After incubating for 24 hours at 37° C., the bacterial suspension is emptied and five rinsings are carried out with 1 ml of sterile distilled water. The epidermis, detached from its support, is then ground with the aid of a food processor in 18 ml of Tryptone salt. A decimal dilution is carried out on this suspension in Tryptone salt, and 1 ml of the dilution is then inoculated into 15 ml of Trypticase Soy agar and the medium is incubated for 24 hours at 37° C. The adherent and viable cells are then counted.
This antiadhesion test makes it possible to evaluate the efficacy of molecules alone or of finished products.
(§1) The figures presented opposite the fatty substance correspond to the reduction of the decimal logarithm of the mean number of viable Staphylococcus aureus adhering to reconstructed epidermis after treatment with the fatty substance under the conditions defined by the preceding test compared with the decimal logarithm of the mean number of viable Staphylococcus aureus adhering to reconstructed epidermis after treatment with water under the same conditions.
as §1, with “value” for “reduction”

[2] = interfacial tension of the fatty substance; assay type: physicochemical

| Compound | Reduction of log/control [1] | Interfacial tension [2] [mN/m] | Log measured ([1]; decimal logarithm of viable adhering Staphylococcus aureus compared with water control, the printed number is an increase /control, same test conditions) |
| --- | --- | --- | --- |
| Tartrate of branched C12-C13 dialcohols | 2.31 |  |  |
| CCCCCCCCCCCCCCCCCCCCCC(=O)OCC(O)COCC(CC)CCCC (centres unmarked) [Octoxyglyceryl behenate] | 2.59 |  |  |
| CC(C)CCCC(C)CCCC(C)CCCCC(C)CCCC(C)CCCC(C)C (centres unmarked) [Squalane, reference compound] |  | 46 | 0.27/control |
| CCCCCCCCCCCCCCCC(=O)OCC(O)COCC(CC)CCCC (centres unmarked) [Octoxyglyceryl palmitate] | 1.85 |  |  |
| CCCCCCCCOC(=O)CCCCC(=O)OCCCCCCCC [Dioctyl adipate] | 0.9 |  |  |
| Di(C12-13 alkyl) malate | 3.68 |  |  |
| CCCCCCCCCCCCCCCC(=O)OC(C)C [Isopropyl palmitate] | 1.07 |  |  |
